Assays:
Assay in all cases: KINOMEscan competition binding
Conditions in all cases: compound 10.0 µM
ADCK3 (human) = ADCK3 (human) (UniProt Q8NI60)
PRKCQ (human) = PRKCQ (human) (UniProt Q04759)
ROCK2 (human) = ROCK2 (human) (UniProt O75116)
MAP2K1 (human) = MAP2K1 (human) (UniProt Q02750)
CDK18 (human) = CDK18 (human) (UniProt Q07002)
SRC (human) = SRC (human) (UniProt P12931)
[1] = system: EGFR (human), P00533 [T790M/L858R]
PIP5K1C (human) = PIP5K1C (human) (UniProt O60331)
DAPK1 (human) = DAPK1 (human) (UniProt P53355)
TAOK2 (human) = TAOK2 (human) (UniProt Q9UL54)
ZAP70 (human) = ZAP70 (human) (UniProt P43403)
CSNK2A2 (human) = CSNK2A2 (human) (UniProt P19784)
STK32C (human) = STK32C (human) (UniProt Q86UX6)
RET (human) = RET (human) (UniProt P07949)
MELK (human) = MELK (human) (UniProt Q14680)
FLT1 (human) = FLT1 (human) (UniProt P17948)
SIK1 (human) = SIK1 (human) (UniProt P57059)
PTK6 (human) = PTK6 (human) (UniProt Q13882)
MAPKAPK2 (human) = MAPKAPK2 (human) (UniProt P49137)
FER (human) = FER (human) (UniProt P16591)
ABL2 (human) = ABL2 (human) (UniProt P42684)
STK32B (human) = STK32B (human) (UniProt Q9NY57)
PAK6 (human) = PAK6 (human) (UniProt Q9NQU5)
MYLK2 (human) = MYLK2 (human) (UniProt Q9H1R3)
CDK13 (human) = CDK13 (human) (UniProt Q14004)
EPHA6 (human) = EPHA6 (human) (UniProt Q9UF33)
HIPK4 (human) = HIPK4 (human) (UniProt Q8NE63)
CDKL5 (human) = CDKL5 (human) (UniProt O76039)
DCLK3 (human) = DCLK3 (human) (UniProt Q9C098)
PKMYT1 (human) = PKMYT1 (human) (UniProt Q99640)
MAP3K10 (human) = MAP3K10 (human) (UniProt Q02779)
MAPK9 (human) = MAPK9 (human) (UniProt P45984)
MYLK3 (human) = MYLK3 (human) (UniProt Q32MK0)
SBK1 (human) = SBK1 (human) (UniProt Q52WX2)
IRAK4 (human) = IRAK4 (human) (UniProt Q9NWZ3)
INSRR (human) = INSRR (human) (UniProt P14616)
PAK4 (human) = PAK4 (human) (UniProt O96013)
MAPK4 (human) = MAPK4 (human) (UniProt P31152)
OXSR1 (human) = OXSR1 (human) (UniProt O95747)
TGFBR1 (human) = TGFBR1 (human) (UniProt P36897)

Chain of MAPK9 (human) (P45984 whole entry, looked up): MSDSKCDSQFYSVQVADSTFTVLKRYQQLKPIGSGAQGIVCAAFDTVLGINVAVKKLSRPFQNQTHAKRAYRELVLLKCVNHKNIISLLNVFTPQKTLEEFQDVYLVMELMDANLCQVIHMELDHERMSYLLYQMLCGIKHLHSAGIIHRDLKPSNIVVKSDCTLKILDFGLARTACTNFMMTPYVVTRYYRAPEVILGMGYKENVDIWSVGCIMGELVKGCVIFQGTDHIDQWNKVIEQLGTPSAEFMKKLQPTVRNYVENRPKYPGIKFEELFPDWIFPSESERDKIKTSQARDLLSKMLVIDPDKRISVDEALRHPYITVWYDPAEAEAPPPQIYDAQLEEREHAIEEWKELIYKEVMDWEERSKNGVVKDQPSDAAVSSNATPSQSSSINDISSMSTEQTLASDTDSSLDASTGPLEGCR
Chain of DAPK1 (human) (P53355 whole entry, looked up): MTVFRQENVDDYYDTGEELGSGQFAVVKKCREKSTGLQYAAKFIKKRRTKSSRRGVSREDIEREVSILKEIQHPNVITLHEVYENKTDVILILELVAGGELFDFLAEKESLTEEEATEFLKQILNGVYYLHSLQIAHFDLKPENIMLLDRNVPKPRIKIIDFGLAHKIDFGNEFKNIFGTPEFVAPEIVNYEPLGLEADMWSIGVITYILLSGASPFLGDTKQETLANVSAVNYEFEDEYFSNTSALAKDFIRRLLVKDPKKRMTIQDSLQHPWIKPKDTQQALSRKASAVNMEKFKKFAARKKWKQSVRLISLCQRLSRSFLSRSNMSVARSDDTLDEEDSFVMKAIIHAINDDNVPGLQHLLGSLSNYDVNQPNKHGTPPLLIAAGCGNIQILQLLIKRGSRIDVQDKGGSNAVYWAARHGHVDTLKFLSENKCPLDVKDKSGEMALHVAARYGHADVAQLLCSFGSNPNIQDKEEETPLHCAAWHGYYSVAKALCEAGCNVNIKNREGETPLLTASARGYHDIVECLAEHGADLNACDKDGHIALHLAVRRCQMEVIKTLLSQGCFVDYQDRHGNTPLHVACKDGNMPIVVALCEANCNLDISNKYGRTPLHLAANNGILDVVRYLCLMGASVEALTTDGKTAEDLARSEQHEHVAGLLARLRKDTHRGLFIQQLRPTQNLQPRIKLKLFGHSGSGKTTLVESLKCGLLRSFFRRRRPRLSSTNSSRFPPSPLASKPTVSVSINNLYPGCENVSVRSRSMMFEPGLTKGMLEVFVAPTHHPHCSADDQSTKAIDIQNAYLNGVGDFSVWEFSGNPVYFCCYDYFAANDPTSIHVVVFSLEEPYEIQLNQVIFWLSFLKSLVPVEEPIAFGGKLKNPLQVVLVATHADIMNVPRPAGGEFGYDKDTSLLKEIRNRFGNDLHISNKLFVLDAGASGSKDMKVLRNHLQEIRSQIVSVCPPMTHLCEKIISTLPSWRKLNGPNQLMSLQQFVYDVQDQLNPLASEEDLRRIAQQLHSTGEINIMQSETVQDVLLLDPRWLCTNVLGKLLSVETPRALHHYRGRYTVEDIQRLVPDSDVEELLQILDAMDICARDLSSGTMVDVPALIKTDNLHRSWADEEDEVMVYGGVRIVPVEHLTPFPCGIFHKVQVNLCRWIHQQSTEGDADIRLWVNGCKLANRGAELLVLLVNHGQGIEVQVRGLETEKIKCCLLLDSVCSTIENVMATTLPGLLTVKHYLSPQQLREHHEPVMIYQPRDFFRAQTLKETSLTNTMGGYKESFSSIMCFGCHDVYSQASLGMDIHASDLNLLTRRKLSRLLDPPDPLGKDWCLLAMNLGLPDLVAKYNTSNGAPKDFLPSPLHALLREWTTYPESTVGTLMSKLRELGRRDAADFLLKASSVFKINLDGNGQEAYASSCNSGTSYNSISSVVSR
Chain of PRKCQ (human) (Q04759 whole entry, looked up): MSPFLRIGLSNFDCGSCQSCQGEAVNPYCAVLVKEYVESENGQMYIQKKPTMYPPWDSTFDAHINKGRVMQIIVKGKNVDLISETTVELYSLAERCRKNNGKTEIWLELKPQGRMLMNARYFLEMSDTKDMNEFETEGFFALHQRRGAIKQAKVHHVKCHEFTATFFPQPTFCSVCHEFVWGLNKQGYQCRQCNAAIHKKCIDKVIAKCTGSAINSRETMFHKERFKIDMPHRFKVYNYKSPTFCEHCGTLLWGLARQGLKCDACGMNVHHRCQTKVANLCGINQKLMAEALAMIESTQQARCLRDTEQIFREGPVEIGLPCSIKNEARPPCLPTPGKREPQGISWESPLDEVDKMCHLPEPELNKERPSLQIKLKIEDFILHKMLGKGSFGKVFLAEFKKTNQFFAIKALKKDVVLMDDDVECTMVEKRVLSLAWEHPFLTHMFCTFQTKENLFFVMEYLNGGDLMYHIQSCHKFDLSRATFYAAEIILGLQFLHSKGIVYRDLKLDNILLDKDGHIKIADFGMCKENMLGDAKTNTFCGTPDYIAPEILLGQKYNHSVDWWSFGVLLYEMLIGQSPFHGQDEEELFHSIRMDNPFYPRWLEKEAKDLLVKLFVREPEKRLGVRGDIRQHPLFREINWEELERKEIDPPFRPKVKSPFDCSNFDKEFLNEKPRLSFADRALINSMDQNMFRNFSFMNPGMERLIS
Chain of ROCK2 (human) (O75116 whole entry, looked up): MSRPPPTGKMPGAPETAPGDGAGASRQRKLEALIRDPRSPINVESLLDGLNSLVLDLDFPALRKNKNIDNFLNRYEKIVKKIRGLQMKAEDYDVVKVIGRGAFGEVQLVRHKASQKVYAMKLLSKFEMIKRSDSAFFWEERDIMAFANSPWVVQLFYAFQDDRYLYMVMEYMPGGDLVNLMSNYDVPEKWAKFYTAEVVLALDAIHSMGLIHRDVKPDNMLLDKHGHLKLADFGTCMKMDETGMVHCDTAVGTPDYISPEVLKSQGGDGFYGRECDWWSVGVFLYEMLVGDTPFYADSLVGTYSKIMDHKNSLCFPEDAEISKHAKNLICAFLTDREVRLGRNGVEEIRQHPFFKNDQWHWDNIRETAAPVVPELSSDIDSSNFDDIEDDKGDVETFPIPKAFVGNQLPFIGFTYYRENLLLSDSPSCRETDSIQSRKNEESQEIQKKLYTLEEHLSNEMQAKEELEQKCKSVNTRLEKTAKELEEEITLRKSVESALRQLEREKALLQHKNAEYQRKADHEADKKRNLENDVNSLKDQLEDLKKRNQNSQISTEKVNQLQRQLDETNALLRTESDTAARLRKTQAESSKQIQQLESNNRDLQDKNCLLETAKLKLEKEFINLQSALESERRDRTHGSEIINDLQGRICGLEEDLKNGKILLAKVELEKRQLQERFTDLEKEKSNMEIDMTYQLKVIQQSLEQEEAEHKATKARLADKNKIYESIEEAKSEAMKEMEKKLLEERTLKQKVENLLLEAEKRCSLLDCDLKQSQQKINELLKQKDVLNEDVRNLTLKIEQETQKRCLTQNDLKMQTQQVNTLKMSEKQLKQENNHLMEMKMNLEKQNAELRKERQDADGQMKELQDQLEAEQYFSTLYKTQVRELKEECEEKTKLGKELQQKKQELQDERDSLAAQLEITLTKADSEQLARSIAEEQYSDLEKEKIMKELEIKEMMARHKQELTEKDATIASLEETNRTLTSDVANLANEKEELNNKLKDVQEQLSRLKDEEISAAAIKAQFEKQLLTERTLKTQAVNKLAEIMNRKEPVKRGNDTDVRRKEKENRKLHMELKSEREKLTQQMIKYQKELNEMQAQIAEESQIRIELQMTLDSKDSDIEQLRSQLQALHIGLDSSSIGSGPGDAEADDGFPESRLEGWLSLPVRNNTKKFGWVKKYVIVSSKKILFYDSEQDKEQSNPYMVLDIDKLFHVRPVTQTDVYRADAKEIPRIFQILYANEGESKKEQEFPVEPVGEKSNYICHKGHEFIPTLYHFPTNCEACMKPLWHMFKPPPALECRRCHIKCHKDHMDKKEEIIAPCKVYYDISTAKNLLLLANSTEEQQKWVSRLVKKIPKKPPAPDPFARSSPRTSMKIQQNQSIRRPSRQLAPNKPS
Chain of PAK4 (human) (O96013 whole entry, looked up): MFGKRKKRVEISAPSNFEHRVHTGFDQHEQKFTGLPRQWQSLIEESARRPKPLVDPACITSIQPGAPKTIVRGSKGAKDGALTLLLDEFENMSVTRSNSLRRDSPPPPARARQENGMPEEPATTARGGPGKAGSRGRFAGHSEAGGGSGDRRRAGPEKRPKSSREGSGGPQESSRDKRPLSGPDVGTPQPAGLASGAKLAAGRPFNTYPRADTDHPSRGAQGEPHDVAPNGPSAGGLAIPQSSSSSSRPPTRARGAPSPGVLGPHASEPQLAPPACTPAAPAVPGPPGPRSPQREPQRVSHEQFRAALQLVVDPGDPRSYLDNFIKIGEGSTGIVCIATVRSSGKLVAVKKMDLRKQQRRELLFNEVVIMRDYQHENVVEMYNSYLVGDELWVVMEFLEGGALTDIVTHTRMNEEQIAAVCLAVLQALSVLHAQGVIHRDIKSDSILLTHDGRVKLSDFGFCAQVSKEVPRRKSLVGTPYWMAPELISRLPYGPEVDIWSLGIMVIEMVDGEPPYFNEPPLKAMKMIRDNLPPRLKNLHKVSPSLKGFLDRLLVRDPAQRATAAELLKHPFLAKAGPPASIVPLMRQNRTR
Chain of MAPKAPK2 (human) (P49137 whole entry, looked up): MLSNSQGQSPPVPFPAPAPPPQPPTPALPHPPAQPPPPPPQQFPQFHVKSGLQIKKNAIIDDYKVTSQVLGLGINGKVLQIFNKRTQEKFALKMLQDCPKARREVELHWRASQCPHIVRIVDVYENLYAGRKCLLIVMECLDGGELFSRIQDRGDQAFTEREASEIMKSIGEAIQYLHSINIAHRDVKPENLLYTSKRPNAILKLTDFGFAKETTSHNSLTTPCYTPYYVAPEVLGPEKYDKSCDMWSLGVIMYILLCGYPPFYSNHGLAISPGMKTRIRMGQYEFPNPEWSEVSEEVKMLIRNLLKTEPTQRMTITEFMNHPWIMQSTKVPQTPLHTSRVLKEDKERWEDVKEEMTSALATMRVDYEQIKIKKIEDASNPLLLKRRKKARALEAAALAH

| Structure (SMILES) | kinase still bound, per cent of control (ADCK3 (human)) [%] | kinase still bound, per cent of control (PRKCQ (human)) [%] | kinase still bound, per cent of control (ROCK2 (human)) [%] | kinase still bound, per cent of control (MAP2K1 (human)) [%] | kinase still bound, per cent of control (CDK18 (human)) [%] | kinase still bound, per cent of control (SRC (human)) [%] | kinase still bound, per cent of control [1] [%] | kinase still bound, per cent of control (PIP5K1C (human)) [%] | kinase still bound, per cent of control (DAPK1 (human)) [%] | kinase still bound, per cent of control (TAOK2 (human)) [%] | kinase still bound, per cent of control (ZAP70 (human)) [%] | kinase still bound, per cent of control (CSNK2A2 (human)) [%] | kinase still bound, per cent of control (STK32C (human)) [%] | kinase still bound, per cent of control (RET (human)) [%] | kinase still bound, per cent of control (MELK (human)) [%] | kinase still bound, per cent of control (FLT1 (human)) [%] | kinase still bound, per cent of control (SIK1 (human)) [%] | kinase still bound, per cent of control (PTK6 (human)) [%] | kinase still bound, per cent of control (MAPKAPK2 (human)) [%] | kinase still bound, per cent of control (FER (human)) [%] | other results |
| --- | --- | --- | --- | --- | --- | --- | --- | --- | --- | --- | --- | --- | --- | --- | --- | --- | --- | --- | --- | --- | --- |
| O=c1cc(N2CCOCC2)oc2c(-c3cccc4c3sc3ccccc34)cccc12 | 72 | 100 | 100 | 76 | 100 | 90 | 93 | 61 | 72 | 98 | 100 | 100 | 54 | 100 | 100 | 97 | 100 | 98 | 100 | 100 | kinase still bound, per cent of control (ABL2 (human)): 92%; kinase still bound, per cent of control (STK32B (human)): 95%; kinase still bound, per cent of control (PAK6 (human)): 94%; kinase still bound, per cent of control (MYLK2 (human)): 100%; kinase still bound, per cent of control (CDK13 (human)): 100%; kinase still bound, per cent of control (EPHA6 (human)): 89%; kinase still bound, per cent of control (HIPK4 (human)): 74%; kinase still bound, per cent of control (CDKL5 (human)): 100%; kinase still bound, per cent of control (DCLK3 (human)): 100%; kinase still bound, per cent of control (PKMYT1 (human)): 92%; kinase still bound, per cent of control (MAP3K10 (human)): 100%; kinase still bound, per cent of control (MAPK9 (human)): 39%; kinase still bound, per cent of control (MYLK3 (human)): 100%; kinase still bound, per cent of control (SBK1 (human)): 100%; kinase still bound, per cent of control (IRAK4 (human)): 99%; kinase still bound, per cent of control (INSRR (human)): 100%; kinase still bound, per cent of control (PAK4 (human)): 80%; kinase still bound, per cent of control (MAPK4 (human)): 100%; kinase still bound, per cent of control (OXSR1 (human)): 100%; kinase still bound, per cent of control (TGFBR1 (human)): 100% |
| O=C1NC(=O)/C(=C/c2ccc3nccc(-c4ccncc4)c3c2)S1 | 93 | 60 | 53 | 1.8 | 56 | 69 | 82 | 28 | 6.4 | 50 | 93 | 1.2 | 96 | 98 | 8.6 | 73 | 96 | 87 | 74 | 50 | kinase still bound, per cent of control (ABL2 (human)): 77%; kinase still bound, per cent of control (STK32B (human)): 100%; kinase still bound, per cent of control (PAK6 (human)): 83%; kinase still bound, per cent of control (MYLK2 (human)): 46%; kinase still bound, per cent of control (CDK13 (human)): 95%; kinase still bound, per cent of control (EPHA6 (human)): 83%; kinase still bound, per cent of control (HIPK4 (human)): 3.8%; kinase still bound, per cent of control (CDKL5 (human)): 76%; kinase still bound, per cent of control (DCLK3 (human)): 11%; kinase still bound, per cent of control (PKMYT1 (human)): 78%; kinase still bound, per cent of control (MAP3K10 (human)): 60%; kinase still bound, per cent of control (MAPK9 (human)): 39%; kinase still bound, per cent of control (MYLK3 (human)): 6.2%; kinase still bound, per cent of control (SBK1 (human)): 73%; kinase still bound, per cent of control (IRAK4 (human)): 47%; kinase still bound, per cent of control (INSRR (human)): 70%; kinase still bound, per cent of control (PAK4 (human)): 75%; kinase still bound, per cent of control (MAPK4 (human)): 100%; kinase still bound, per cent of control (OXSR1 (human)): 87%; kinase still bound, per cent of control (TGFBR1 (human)): 20% |
| COc1cc2ncnc(-n3nc(-c4ccccn4)nc3N)c2cc1OC | 10 | 100 | 20 | 64 | 62 | 6.7 | 84 | 5 | 3.6 | 42 | 32 | 5.2 | 44 | 20 | 9.2 | 48 | 45 | 51 | 100 | 93 | kinase still bound, per cent of control (ABL2 (human)): 33%; kinase still bound, per cent of control (STK32B (human)): 100%; kinase still bound, per cent of control (PAK6 (human)): 55%; kinase still bound, per cent of control (MYLK2 (human)): 61%; kinase still bound, per cent of control (CDK13 (human)): 17%; kinase still bound, per cent of control (EPHA6 (human)): 23%; kinase still bound, per cent of control (HIPK4 (human)): 6%; kinase still bound, per cent of control (CDKL5 (human)): 0.3%; kinase still bound, per cent of control (DCLK3 (human)): 100%; kinase still bound, per cent of control (PKMYT1 (human)): 63%; kinase still bound, per cent of control (MAP3K10 (human)): 62%; kinase still bound, per cent of control (MAPK9 (human)): 1.5%; kinase still bound, per cent of control (MYLK3 (human)): 100%; kinase still bound, per cent of control (SBK1 (human)): 100%; kinase still bound, per cent of control (IRAK4 (human)): 5.8%; kinase still bound, per cent of control (INSRR (human)): 100%; kinase still bound, per cent of control (PAK4 (human)): 72%; kinase still bound, per cent of control (MAPK4 (human)): 85%; kinase still bound, per cent of control (OXSR1 (human)): 42%; kinase still bound, per cent of control (TGFBR1 (human)): 14% |
